Source: patent US12358948B2, “Neurotensinergic agonists and methods of using same preventing or treating pain” (priority 2019, dated 2025)
Where a SMILES comes first, the peptide text is derived from it. Bridges are numbered along the chain shown (N, C = ends). [ ]: non-standard residue; d: D form. Phe(4-Cl) = N[C@@H](Cc1ccc(Cl)cc1)C(=O)O; 2Nal = N[C@@H](Cc1ccc2ccccc2c1)C(=O)O; Ala(cPent) = N[C@@H](CC1CCCC1)C(=O)O; hCha = N[C@@H](CCC1CCCCC1)C(=O)O; Hpg = N[C@H](C(=O)O)c1ccc(O)cc1; Cit = NC(=O)NCCC[C@H](N)C(=O)O; AllylGly = C=CC[C@H](N)C(=O)O; Cba = N[C@@H](CC1CCC1)C(=O)O; Pen = CC(C)(S)[C@H](N)C(=O)O; R5 = C=CCCC[C@@](C)(N)C(=O)O; Tle = CC(C)(C)[C@H](N)C(=O)O; Orn = NCCC[C@H](N)C(=O)O; Dab = NCC[C@H](N)C(=O)O

Legend:
hNTS1 receptor = target: T1, hNTS1 receptor (Homo sapiens, UniProt P30989); assay: Competitive radioligand binding assay on the hNTS1 receptor; conditions: displacement of 125I-[Tyr3]-NT, membranes of CHO-K1 cells expressing hNTS1; read-out: IC50 NTS1
T1 construct: membranes prepared from them
Procedure: (§1) CHO-K1 (Chinese Hamster Ovary) cells stably expressing hNTS1 and 1321N1 cells stably expressing hNTS2 (ES-690-C and ES-691-C from PerkinElmer, Montréal, Canada) were cultured respectively in Ham's F12 and in DMEM culture media. Culture media were supplemented with 10% FBS, 100 U/mL penicillin, 100 μg/mL streptomycin, 20 mM HEPES, and 0.4 mg/mL G418 at 37° C. in a humidified chamber at 5% CO2.
(§2) The cells expressing hNTS1 were frozen when they reached 80% confluency. They were scrapped off the dish with 10 mM Tris buffer, 1 mM EDTA, pH 7.5 and centrifuged at 15,000 g for 5 min at 4° C. The pellet was then re-suspended in 1 mL binding buffer. The cells expressing hNTS2 were also frozen when they reached 80% confluency. They were scraped off the dish with PBS, 0.5 mM EDTA, pH 7.5 and sonicated for 5 minutes (pulse 30 s/5 s off, amplitude 40%). They were ultracentrifuged at 100 000 g for 60 minutes at 4° C. The pellet was re-suspended in 1 mL freezing buffer (PBS, glycerol, 0.5 mM EDTA), sonicated for 1 minute (pulse 30 s/5 s off, amplitude 50%) and further diluted in binding buffer. Competitive radioligand binding experiments were performed by incubating 15 μg of cell membranes expressing the hNTS1 receptor with […] of ^125I-[Tyr^3]-NT (2200 Ci/mmol) or 50 μg of cell membranes expressing the hNTS2 receptor with […] of ^125I-[Tyr^3]-NT in binding buffer (50 mM Tris-HCl, pH 7.5, 0.2% BSA) in the presence of increasing concentrations of analogues ranging from 10^−11 to 10^−4 M for 60 min at 25° C. After incubation, the binding reaction mixture was transferred in PEI-coated 96-well filter plates (glass fiber filters GF/B, Millipore, Billerica, MA). Reaction was terminated by filtration, and plates were washed three times with 200 μL ice-cold binding buffer. Glass filters were then counted using a γ-counter (2470 Wizard2, PerkinElmer, Mississauga, Ontario, Canada). Non-specific binding was measured in the presence of 10^−5 M unlabeled NT (8-13) and represented less than 5% of total binding. IC50 values were determined from competition curves as the unlabeled ligand concentration inhibiting 50% of ^125I-[Tyr^3]-NT-specific binding.
(§3) Competitive radioligand binding data were plotted using the nonlinear regression One-site-Fit Log(IC50) and represented the mean±SEM of at least three independent experiments in triplicates.

hNTS2 receptor = target: T2, hNTS2 receptor (Homo sapiens, UniProt O95665); assay: Competitive radioligand binding assay on the hNTS2 receptor; conditions: for IC50: displacement of 125I-[Tyr3]-NT, membranes of 1321N1 cells expressing hNTS2, read-out: IC50 NTS2 (converted); for Selectivity: ratio IC50 for NTS1 : IC50 for NTS2
T2 construct: membranes prepared from them
Procedure: as §1, §2, §3

T2 sequence (O95665 whole entry): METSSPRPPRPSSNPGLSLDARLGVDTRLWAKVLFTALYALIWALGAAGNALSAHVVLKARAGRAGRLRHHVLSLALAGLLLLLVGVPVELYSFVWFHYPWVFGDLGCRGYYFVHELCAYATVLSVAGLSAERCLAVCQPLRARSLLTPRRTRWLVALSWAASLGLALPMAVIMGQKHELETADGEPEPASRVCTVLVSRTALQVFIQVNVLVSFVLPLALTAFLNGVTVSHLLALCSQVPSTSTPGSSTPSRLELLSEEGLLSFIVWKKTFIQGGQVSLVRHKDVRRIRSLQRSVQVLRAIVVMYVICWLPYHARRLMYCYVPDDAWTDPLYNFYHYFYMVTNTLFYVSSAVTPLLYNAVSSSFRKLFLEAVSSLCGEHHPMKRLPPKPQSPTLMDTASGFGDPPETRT
T1 sequence (P30989 whole entry): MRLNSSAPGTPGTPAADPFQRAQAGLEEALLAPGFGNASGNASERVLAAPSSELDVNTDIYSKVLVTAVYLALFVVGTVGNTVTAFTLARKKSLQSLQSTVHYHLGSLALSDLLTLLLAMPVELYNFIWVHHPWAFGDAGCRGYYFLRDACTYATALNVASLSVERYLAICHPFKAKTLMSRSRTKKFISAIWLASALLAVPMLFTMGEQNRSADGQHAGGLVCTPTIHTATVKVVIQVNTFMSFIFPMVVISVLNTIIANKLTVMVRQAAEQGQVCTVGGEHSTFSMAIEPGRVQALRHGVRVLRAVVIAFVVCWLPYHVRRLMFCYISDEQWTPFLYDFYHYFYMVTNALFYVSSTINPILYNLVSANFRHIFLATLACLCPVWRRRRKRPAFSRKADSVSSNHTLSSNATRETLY

Structure (SMILES)	IC50 (hNTS1 receptor)	IC50 (hNTS2 receptor)	Selectivity (hNTS2 receptor)
COc1ccc(C[C@H](NC(=O)[C@H](Cc2ccc(O)cc2)NC(=O)[C@@H]2CC=CC[C@H](N)C(=O)N[C@@H](CCCCN)C(=O)N[C@@H](CCCCN)C(=O)N2)C(=O)O)cc1 [compound 62, c[G(All)KKG(All)]YY(OMe)] (H-[AllylGly]KK[AllylGly]YY(Me)-OH; staple 1-4)	> 100 µM	0.166 µM	>602
CC(C)C[C@H](NC(=O)[C@H](CC1CCCC1)NC(=O)[C@@H]1CC=CC[C@H](N)C(=O)N[C@@H](CCCCN)C(=O)N[C@@H](CCCCN)C(=O)N1)C(=O)O [compound 142, c[G(All)KKG(All)]A (cyclopentyl)L] (H-[AllylGly]KK[AllylGly][Ala(cPent)]L-OH; staple 1-4)	> 100 µM	0.204 µM	490
CC(C)C[C@H](NC(=O)[C@H](Cc1ccc(O)cc1)NC(=O)[C@@H]1CC=CC[C@H](N)C(=O)N[C@@H](CCCCN)C(=O)N[C@@H](CCCNC(N)=O)C(=O)N1)C(=O)O [compound 146, c[G(All)KcitrullineG(All)]YL] (H-[AllylGly]K[Cit][AllylGly]YL-OH; staple 1-4)	> 100 µM	0.698 µM	143
CC(C)C[C@H](NC(=O)[C@H](Cc1ccc(O)cc1)NC(=O)C1(C)CC=CCCC[C@H](N)C(=O)N[C@@H](CCCCN)C(=O)N[C@@H](CCCCN)C(=O)N1)C(=O)O (single isomer, unassigned) [compound 92, c[G(All)KKG*(alpha-Me-(4-Pentenyl))]YL]	> 100 µM	0.511 µM	>196
CC(C)[C@H](NC(=O)[C@H](Cc1ccc(O)cc1)NC(=O)[C@@H]1CC=CC[C@H](N)C(=O)N[C@@H](CCCCN)C(=O)N[C@@H](CCCCN)C(=O)N1)C(=O)O [compound 33, c[G(All)KKG(All)]YV] (H-[AllylGly]KK[AllylGly]YV-OH; staple 1-4)	> 100 µM	79.8 µM	>1.25
CC(C)C[C@H](NC(=O)[C@H](Cc1ccc(Br)cc1)NC(=O)[C@@H]1CC=CCCC(=O)N[C@@H](CCCCN)C(=O)N[C@@H](CCCCN)C(=O)N1)C(=O)O [compound 131, c[K(pentenoyl)KG(All)](4-bromo)L]	> 100 µM	0.0274 µM	3650
CC(C)C[C@@H](NC(=O)[C@H](Cc1ccc(O)cc1)NC(=O)[C@@H]1CC=CC[C@H](N)C(=O)N[C@@H](CCCCN)C(=O)N[C@@H](CCCCN)C(=O)N1)C(=O)O [compound 38, c[G(All)KKG(All)]YL*] (H-[AllylGly]KK[AllylGly]Y[dL]-OH; staple 1-4)	> 100 µM	240 µM	> 2.4
CC(C)C[C@H](NC(=O)[C@H](Cc1c[nH]c2ccccc12)NC(=O)[C@@H]1CC=CC[C@H](N)C(=O)N[C@@H](CCCCN)C(=O)N[C@@H](CCCCN)C(=O)N1)C(=O)O [compound 16, c[G(All)KKG(All)]WL] (H-[AllylGly]KK[AllylGly]WL-OH; staple 1-4)	> 100 µM	0.0536 µM	1865
CC(C)C[C@H](NC(=O)[C@H](Cc1ccc(O)cc1)NC(=O)[C@@H]1CC(=O)NCCC[C@H](N)C(=O)N[C@@H](CCCCN)C(=O)N[C@@H](CCCCN)C(=O)N1)C(=O)O [compound 96, c[OrnKKD]YL] (H-[Orn]KKDYL-OH; lactam 1-4)	> 100 µM	1.93 µM	>51.8
CC(C)C[C@H](NC(=O)[C@@H](NC(=O)[C@@H]1CC=CC[C@H](N)C(=O)N[C@@H](CCCCN)C(=O)N[C@@H](CCCCN)C(=O)N1)c1ccc(O)cc1)C(=O)O [compound 125] (H-[AllylGly]KK[AllylGly][Hpg]L-OH; staple 1-4)	> 100 µM	1.8 µM	56
CC(C)C[C@H](NC(=O)[C@H](Cc1ccc(O)cc1)NC(=O)[C@@H]1CCC(=O)NCCC[C@H](N)C(=O)N[C@@H](CCCCN)C(=O)N[C@@H](CCCCN)C(=O)N1)C(=O)O [compound 100, c[OrnKKE]YL] (H-[Orn]KKEYL-OH; lactam 1-4)	> 100 µM	4.5 µM	>22
CC(C)C[C@H](NC(=O)[C@H](Cc1ccc(O)cc1)NC(=O)[C@@H]1CCNC(=O)C[C@H](N)C(=O)N[C@@H](CCCCN)C(=O)N[C@@H](CCCCN)C(=O)N1)C(=O)O [compound 105, c[DKKDab]YL] (H-DKK[Dab]YL-OH; lactam 1-4)	> 100 µM	1.45 µM	>67.0
CC(C)C[C@H](NC(=O)[C@H](Cc1ccc(O)cc1)NC(=O)[C@@H]1CC=CC[C@H](N)C(=O)N[C@@H](CCCCN)C(=O)NCC(=O)N1)C(=O)O [compound 59, c[G(All)KGG(All)]YL] (H-[AllylGly]KG[AllylGly]YL-OH; staple 1-4)	> 100 µM	2.13 µM	>47
CC(C)C[C@H](NC(=O)[C@H](Cc1ccc2ccccc2c1)NC(=O)[C@@H]1CC=CC[C@H](N)C(=O)N[C@@H](CCCCN)C(=O)N[C@@H](CCCCN)C(=O)N1)C(=O)O [compound 112, c[G(All)KKG(All)]A(naphtyl)L] (H-[AllylGly]KK[AllylGly][2Nal]L-OH; staple 1-4)	> 100 µM	0.0836 µM	>1196
CC(C)C[C@H](NC(=O)[C@H](Cc1ccc(O)cc1)NC(=O)[C@@H]1CC=CCCC[C@@](C)(N)C(=O)N[C@@H](CCCCN)C(=O)N[C@@H](CCCCN)C(=O)N1)C(=O)O [compound 90, c[G*(alpha-Me-(4-Pentenyl))KKG(All)]YL] (H-[R5]KK[AllylGly]YL-OH; staple 1-4)	> 100 µM	0.0769 µM	>1300
CC(C)C[C@H](NC(=O)[C@@H](Cc1c[nH]c2ccccc12)NC(=O)[C@@H]1CC=CC[C@H](N)C(=O)N[C@@H](CCCCN)C(=O)N[C@@H](CCCCN)C(=O)N1)C(=O)O [compound 43, c[G(All)KKG(All)]W*L] (H-[AllylGly]KK[AllylGly][dW]L-OH; staple 1-4)	> 100 µM	0.968 µM	>103.3
CC(C)C[C@H](NC(=O)[C@H](Cc1ccccc1)NC(=O)[C@@H]1CC=CC[C@H](N)C(=O)N[C@@H](CCCCN)C(=O)N[C@@H](CCCCN)C(=O)N1)C(=O)O [compound 76, c[G(All)KKG(All)FL] (H-[AllylGly]KK[AllylGly]FL-OH; staple 1-4)	> 100 µM	0.0851 µM	>1175
CC(C)C[C@H](NC(=O)[C@H](Cc1ccc(Cl)cc1)NC(=O)[C@@H]1CC=CC[C@H](N)C(=O)N[C@@H](CCCCN)C(=O)N[C@@H](CCCCN)C(=O)N1)C(=O)O [compound 114, c[G(All)KKG(All)]F(4-chloro)L] (H-[AllylGly]KK[AllylGly][Phe(4-Cl)]L-OH; staple 1-4)	> 100 µM	0.0406 µM	>2466
CC(C)C[C@H](NC(=O)[C@H](Cc1ccc(O)cc1)NC(=O)[C@H]1NC(=O)[C@H](CCCCN)NC(=O)[C@H](CCCCN)NC(=O)[C@@H](N)C(C)(C)SSC1(C)C)C(=O)O [compound 155, c[(Pen)KK(Pen)]YL] (H-[Pen]KK[Pen]YL-OH; disulfide 1-4)	> 100 µM	0.318 µM	315
CC(C)C[C@H](NC(=O)[C@H](CC1CCC1)NC(=O)[C@@H]1CC=CC[C@H](N)C(=O)N[C@@H](CCCCN)C(=O)N[C@@H](CCCCN)C(=O)N1)C(=O)O [compound 143, c[G(All)KKG(All)]A (cyclobutyl)L] (H-[AllylGly]KK[AllylGly][Cba]L-OH; staple 1-4)	> 100 µM	0.276 µM	362
CC(C)(C)[C@H](NC(=O)[C@H](Cc1ccc(O)cc1)NC(=O)[C@@H]1CC=CC[C@H](N)C(=O)N[C@@H](CCCCN)C(=O)N[C@@H](CCCCN)C(=O)N1)C(=O)O [compound 27, c[G(All)KKG(All)]YTle] (H-[AllylGly]KK[AllylGly]Y[Tle]-OH; staple 1-4)	> 100 µM	77.8 µM	>1.3
NCCCC[C@@H]1NC(=O)[C@H](CCCCN)NC(=O)[C@@H](N)CC=CC[C@@H](C(=O)N[C@@H](Cc2ccc(O)cc2)C(=O)N[C@@H](CCC2CCCCC2)C(=O)O)NC1=O [compound 64, c[G(All)KKG(All)]YA(homoChA)] (H-[AllylGly]KK[AllylGly]Y[hCha]-OH; staple 1-4)	> 100 µM	0.00774 µM	>12 920
